Experiment [1] deals with human vasopressin V1a receptor (Homo sapiens, UniProt P37288). The experiment can be described thus: Receptor binding study, [3H]AVP displacement on CHO cell membranes, human V1a. As to conditions: [3H]AVP displacement, CHO cell membrane, 25° C., one hour; read-out: Human V1a Ki. How it is done:
(§1) (ii) Receptor Binding Study
(§2) Assay was performed using 50 mM of Tris-HCl (pH=7.4) (total amount: 250 μL) (buffer composition: containing […] of MgCl2 and 0.1% BSA), and incubation was performed at room temperature (25° C.) for one hour. After incubation, suck filtration was immediately performed and reaction was completed when the membrane sample was collected on a glass fiber filter fitted with the microplate. After the filter was washed with an ice-cold Tris-HCl buffer (50 mM Tris-HCl, 10 mM MgCl2, pH 7.4), radioactivity measurement was performed. Nonspecific binding was determined using nonradioactive-labeled AVP (1 μM).

Experiment [2] addresses human vasopressin V2 receptor (Homo sapiens, UniProt P30518). The experiment can be described thus: Receptor binding study, [3H]AVP displacement on CHO cell membranes, human V2. The conditions noted are these: [3H]AVP displacement, CHO cell membrane, 25° C., one hour; read-out: Human V2 Ki. Here is the method: Preparation of Chinese hamster ovary (Cho) cell which expresses human vasopressin receptor subtype and production of membrane sample of the cell was conducted according to the method of Tahara et al. (Br. J. Pharmacol., 125, 1463-1470, 1998).
as §1
as §2, with “In saturation binding experiment, the membrane sample and [^3H]AVP of several concentrations (0.125 nM to 4.0 nM) were mixed and incubated in microplate wells. In displacement experiment, [^3H]AVP of constant concentrations (0.5 nM to 1.0 nM) and the membrane sample were mixed with Compound A of several concentrations, and incubation was performed. Assay” for “Assay”

Ki data for 23 molecules are collected here from patent publication US20080076760A1, “2,3,4,5-TETRAHYDRO-1H-1,5-BENZODIAZEPINE DERIVATIVE AND MEDICINAL COMPOSITION” (priority 2004, published 2008).

Chain of human vasopressin V2 receptor (P30518 whole entry): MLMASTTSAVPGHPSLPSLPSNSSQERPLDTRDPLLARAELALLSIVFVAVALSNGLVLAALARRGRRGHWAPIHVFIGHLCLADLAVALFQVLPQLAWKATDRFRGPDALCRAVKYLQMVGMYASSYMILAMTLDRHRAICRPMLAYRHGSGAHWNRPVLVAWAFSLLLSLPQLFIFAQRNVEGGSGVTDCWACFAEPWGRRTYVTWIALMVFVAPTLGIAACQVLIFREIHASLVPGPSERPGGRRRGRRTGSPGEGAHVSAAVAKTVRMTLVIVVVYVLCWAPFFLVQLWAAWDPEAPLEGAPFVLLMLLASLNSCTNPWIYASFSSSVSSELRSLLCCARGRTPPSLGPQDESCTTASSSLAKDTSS
Chain of human vasopressin V1a receptor (P37288 whole entry): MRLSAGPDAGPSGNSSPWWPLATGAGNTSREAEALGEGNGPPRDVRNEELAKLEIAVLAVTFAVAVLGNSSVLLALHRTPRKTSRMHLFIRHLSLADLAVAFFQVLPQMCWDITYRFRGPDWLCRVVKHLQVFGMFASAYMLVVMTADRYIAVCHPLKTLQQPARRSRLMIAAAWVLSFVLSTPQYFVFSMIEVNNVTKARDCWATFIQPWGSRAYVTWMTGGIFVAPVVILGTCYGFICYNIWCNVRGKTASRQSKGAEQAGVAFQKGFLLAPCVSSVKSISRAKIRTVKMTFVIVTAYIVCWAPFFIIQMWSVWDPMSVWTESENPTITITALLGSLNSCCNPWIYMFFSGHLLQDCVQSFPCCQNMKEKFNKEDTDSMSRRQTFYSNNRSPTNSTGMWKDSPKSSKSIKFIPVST

As a reminder, the Ki is the equilibrium dissociation constant of an inhibitor or competing ligand from its target. Consider `C[C@H]1CCN(C(=O)c2ccc(-c3ccc4[nH]ccc4c3)c(OCCCN3CCC(C(N)=O)CC3)c2)c2ccccc2N1` [Example 83, 1-[3-[2-(1H-indol-5-yl)-5-[[(4S)-4-methyl-2,3,4,5-tetrahydro-1H-1,5-benzodiazepin-1-yl]carbonyl]phenoxy]propyl]-4-piperidine carboxamide], for which the Ki in experiment [1] was found to be 0.13 nM; in experiment [2] it was 17 nM.

As for `CCCNCCCOc1cc(C(=O)N2CC[C@H](C)Nc3ccccc32)ccc1-c1ccc(NCC)cc1` [Example 165, N-ethyl-4′-[[(4S)-4-methyl-2,3,4,5-tetrahydro-1H-1,5-benzodiazepin-1-yl]carbonyl]-2′-[3-(propylamino)propoxy][1,1′-biphenyl]-4-amine], the Ki in experiment [1] was found to be 0.28 nM; in experiment [2] it was 92 nM.

`CC1CCN(C(=O)c2ccc(-c3ccc4[nH]ccc4c3)c(OCCCN)c2)c2ccccc2N1` (stereo not drawn) [Example 30, 3-[2-(1H-indol-5-yl)-5-[(4-methyl-2,3,4,5-tetrahydro-1H-1,5-benzodiazepin-1-yl)carbonyl]phenoxy]-1-propaneamine]: the Ki is 0.091 nM in experiment [1] and 17 nM in experiment [2].

In the case of `C[C@H]1CCN(C(=O)c2ccc(-c3ccc4[nH]ccc4c3)c(C(=O)OCCN(C)C)c2)c2ccccc2N1` [Example 144, 2-(dimethylamino)ethyl 2-(1H-indol-5-yl)-5-[[(4S)-4-methyl-2,3,4,5-tetrahydro-1H-1,5-benzodiazepin-1-yl]carbonyl]benzoate], the inhibition constant Ki in experiment [1] is 0.11 nM; in experiment [2] it was 28 nM.

As for `CCCCN(C)CCCCOc1cc(C(=O)N2CC[C@H](C)Nc3ccccc32)ccc1-c1ccc2[nH]ccc2c1` [Example 173, N-butyl-4-[2-(1H-indol-5-yl)-5-[[(4S)-4-methyl-2,3,4,5-tetrahydro-1H-1,5-benzodiazepin-1-yl]carbonyl]phenoxy]-N-methyl-1-butaneamine], the results for the Ki in experiment [1] and in experiment [2] were 0.21 nM and 10 nM, respectively.

On to `C[C@@H]1CN(CCCOc2cc(C(=O)N3CC[C@H](C)Nc4ccccc43)ccc2-c2ccc3[nH]ccc3c2)C[C@H](C)O1` [Example 115, (4S)-1-[3-[3-[(2R,6S)-2,6-dimethylmorpholinyl]propoxy]-4-(1H-indol-5-yl)benzoyl]-4-methyl-2,3,4,5-tetrahydro-1H-1,5-benzodiazepine], for which the values for the Ki in experiment [1] and in experiment [2] were 0.27 nM and 4.9 nM, respectively.

As to `CCCN(CC)CCCOc1cc(C(=O)N2CC[C@H](C)Nc3ccccc32)ccc1-c1ccc2[nH]ccc2c1` [Example 125, N-ethyl-3-[2-(1H-indol-5-yl)-5-[[(4S)-4-methyl-2,3,4,5-tetrahydro-1H-1,5-benzodiazepin-1-yl]carbonyl]phenoxy]-N-propyl-1-propaneamine], the results for the inhibitory constant (Ki) in experiment [1] and in experiment [2] were 0.18 nM and 15 nM, respectively.

Take `C[C@H]1CCN(C(=O)c2ccc(-c3ccc4[nH]ccc4c3)c(OCCCN3CCOCC3)c2)c2ccccc2N1` [Example 61, (4S)-1-[4-(1H-indol-5-yl)-3-[3-(4-morpholinyl)propoxy]benzoyl]-4-methyl-2,3,4,5-tetrahydro-1H-1,5-benzodiazepine]: the Ki in experiment [1] was 0.22 nM; in experiment [2], 1.9 nM.

For the molecule `CCCN(C)CCCOc1cc(C(=O)N2CC[C@@H](C)Nc3ccccc32)ccc1-c1ccc(NC)cc1` [Example 130, N-methyl-2′-[3-[methyl(propyl)amino]propoxy]-4′-[[(4R)-4-methyl-2,3,4,5-tetrahydro-1H-1,5-benzodiazepin-1-yl]carbonyl][1,1′-biphenyl]-4-amine], the Ki stood at 0.36 nM in experiment [1] and 309 nM in experiment [2].

Consider `C[C@H]1CCN(C(=O)c2ccc(-c3ccc(N)cc3)c(OCCN3CCOCC3)c2)c2ccccc2N1` [Example 60, 4′-[[(4S)-4-methyl-2,3,4,5-tetrahydro-1H-1,5-benzodiazepin-1-yl]carbonyl]-2′-[2-(4-morpholinyl)ethoxy][1,1′-biphenyl]-4-amine], for which the Ki in experiment [1] was found to be 0.27 nM; in experiment [2], 84 nM.

In the case of `C[C@H]1CCN(C(=O)c2ccc(-c3ccc4[nH]ccc4c3)c(N3CCN(C)CC3)c2)c2ccccc2N1` [Example 149, (4S)-1-[4-(1H-indol-5-yl)-3-(4-methyl-1-piperazinyl)benzoyl]-4-methyl-2,3,4,5-tetrahydro-1H-1,5-benzodiazepine], the Ki in experiment [1] stood at 0.29 nM; in experiment [2] it was 1.9 nM.

Regarding `C[C@H]1CCN(C(=O)c2ccc(-c3ccc4[nH]ccc4c3)c(OCCCN3CCC(NC=O)CC3)c2)c2ccccc2N1` [Example 87, 1-[3-[2-(1H-indol-5-yl)-5-[[(4S)-4-methyl-2,3,4,5-tetrahydro-1H-1,5-benzodiazepin-1-yl]carbonyl]phenoxy]propyl]-4-piperidinylformamide], the Ki in experiment [1] stood at 0.086 nM; in experiment [2], 8.7 nM.

For `CCOC(=O)CC(=O)NCCCOc1cc(C(=O)N2CC[C@H](C)Nc3ccccc32)ccc1-c1ccc2[nH]ccc2c1` [Example 170, ethyl 3-[[3-[2-(1H-indol-5-yl)-5-[[(4S)-4-methyl-2,3,4,5-tetrahydro-1H-1,5-benzodiazepin-1-yl]carbonyl]phenoxy]propyl]amino]-3-oxopropanoate], the inhibition constant Ki was 0.37 nM in experiment [1] and 2.6 nM in experiment [2].

Consider `COc1cc(C(=O)N2CCC(C)(C)Nc3ccccc32)ccc1-c1ccc2[nH]ccc2c1` [Example 2, 1-[4-(1H-indol-5-yl)-3-methoxybenzoyl]-4,4-dimethyl-2,3,4,5-tetrahydro-1H-1,5-benzodiazepine], for which the Ki in experiment [1] came to 0.31 nM; in experiment [2] it was 4.4 nM.

On to `CC1CN(CCCOc2cc(C(=O)N3CC[C@H](C)Nc4ccccc43)ccc2-c2ccc3[nH]ccc3c2)CC(C)O1` (stereo partly drawn) [Example 80, (4S)-1-[3-[3-(2,6-dimethyl-4-morpholinyl)propoxy]-4-(1H-indol-5-yl)benzoyl]-4-methyl-2,3,4,5-tetrahydro-1H-1,5-benzodiazepine], for which the Ki was found to be 0.064 nM in experiment [1] and 5.1 nM in experiment [2].

As for `C[C@H]1CCN(C(=O)c2ccc(-c3ccc4[nH]ccc4c3)c(OCCCN3CCOC3=O)c2)c2ccccc2N1` [Example 92, 3-[3-[2-(1H-indol-5-yl)-5-[[(4S)-4-methyl-2,3,4,5-tetrahydro-1H-1,5-benzodiazepin-1-yl]carbonyl]phenoxy]propyl]-1,3-oxazolidin-2-one], the results for the Ki in experiment [1] and in experiment [2] were 0.21 nM and 5.6 nM, respectively.

As for `C[C@H]1CCN(C(=O)c2ccc(-c3ccc4[nH]ccc4c3)c(NC(=O)N3CCOCC3)c2)c2ccccc2N1` [Example 89, N-[2-(1H-indol-5-yl)-5-[[(4S)-4-methyl-2,3,4,5-tetrahydro-1H-1,5-benzodiazepin-1-yl]carbonyl]phenyl]-4-morpholine carboxamide], the inhibition constant (Ki) in experiment [1] came out at 0.29 nM; in experiment [2], 19 nM.

Turning to `C[C@H]1CCN(C(=O)c2ccc(-c3ccc4[nH]ccc4c3)c(OCCCN(C)C(C)(C)C)c2)c2ccccc2N1` [Example 82, N-(tert-butyl)-N-[3-[2-(1H-indol-5-yl)-5-[[(4S)-4-methyl-2,3,4,5-tetrahydro-1H-1,5-benzodiazepin-1-yl]carbonyl]phenoxy]propyl]-N-methylamine], the values for the Ki in experiment [1] and in experiment [2] were 0.16 nM and 16 nM, respectively.

As to `COCCN(CCCOc1cc(C(=O)N2CC[C@H](C)Nc3ccccc32)ccc1-c1ccc2[nH]ccc2c1)CCOC` [Example 84], the Ki in experiment [1] worked out at 0.1 nM; in experiment [2], 6.5 nM.

As to `CCN(C)CCCCOc1cc(C(=O)N2CC[C@H](C)Nc3ccccc32)ccc1-c1ccc2[nH]ccc2c1` [Example 172, N-ethyl-4-[2-(1H-indol-5-yl)-5-[[(4S)-4-methyl-2,3,4,5-tetrahydro-1H-1,5-benzodiazepin-1-yl]carbonyl]phenoxy]-N-methyl-1-butaneamine], the Ki came to 0.093 nM in experiment [1] and 7.1 nM in experiment [2].

Turning to `CCN1CCC(OC(=O)c2cc(C(=O)N3CC[C@H](C)Nc4ccccc43)ccc2-c2ccc3[nH]ccc3c2)C1` (stereo partly drawn) [Example 145, 1-ethyl-3-pyrrolidinyl 2-(1H-indol-5-yl)-5-[[(4S)-4-methyl-2,3,4,5-tetrahydro-1H-1,5-benzodiazepin-1-yl]carbonyl]benzoate], the results for the Ki in experiment [1] and in experiment [2] were 0.12 nM and 20 nM, respectively.

With `CC(C)N(C)CCCOc1cc(C(=O)N2CC[C@H](C)Nc3ccccc32)ccc1-c1ccc2[nH]ccc2c1` [Example 85, N-[3-[2-(1H-indol-5-yl)-5-[[(4S)-4-methyl-2,3,4,5-tetrahydro-1H-1,5-benzodiazepin-1-yl]carbonyl]phenoxy]propyl]-N-isopropyl-N-methylamine], the values for the inhibition constant (Ki) in experiment [1] and in experiment [2] were 0.052 nM and 7.7 nM, respectively.

As to `COc1ccc(S(=O)(=O)N2c3ccc(Cl)cc3[C@](O)(c3ccccc3Cl)[C@@H]2C(=O)N2CCC[C@H]2C(N)=O)cc1OC` [SR49059, reference compound], in experiment [2], the Ki turned out to be 143 nM.
